Assay results as given in article PMC4912218, “Targeted metabolomics of Gammarus pulex following controlled exposures to selected pharmaceuticals in water” (The Science of the Total Environment, 2016).

System: Gammarus pulex
Experiment: Targeted metabolite profiling (LC-HRMS) of G. pulex after exposure at NOAEL and LOAEL
Format: in vivo
Protocol: Approximately 100 specimens were introduced in a tank containing 1 L of AFW (control), 1 L of AFW spiked with C1 and 1 L of AFW with C2. At three different times (2, 6 and 24 h), 4 replicates of live G. pulex (a pool of 6–7 animals for each replicate) were collected, frozen on dry ice and then stored at − 80 °C before metabolite profiling was performed.
Quantification of pharmaceutical concentrations in G. pulex at the 24 h exposure interval was performed. Separate exposures were set up in triplicate in beakers containing 200 mL of exposure solution (AFW spiked with the respective C1 pharmaceutical dose) and 20 organisms. At 24 h, animals were immediately rinsed with ultra-pure water and then frozen at − 20 °C for 24 h. […] Prior to extraction, frozen G. pulex samples were lyophilised at − 50 °C under vacuum for 48 h and milled in an agate mortar to a fine powder. For each analysis, 20 mg of a lyophilised composite sample were transferred to 2 mL polypropylene tubes (Eppendorf®, Hamburg, Germany), for solid-liquid extraction (SLE). […] Then, samples were shaken for 25 min on a vibration plate (IKA® KS 260 basic) and centrifuged at 14,000 rpm for 25 min at 0 °C. Finally, the supernatant was transferred to a chromatographic vial by using a […] syringe filter (Whatman, GE Healthcare Life Sciences, Buckinghamshire, UK). All samples were stored at − 80 °C until LC-HRMS analysis.
Briefly, 50 mg of lyophilised G. pulex were extracted in 5 mL of acetonitrile and pre-concentrated on Oasis HLB SPE cartridges (6 mL, 200 mg sorbent). The extract was eluted, dried-down and reconstituted in starting LC mobile phase. […] Organic acids, nucleosides, nucleotides, sugars and AAs were measured using LC–HRMS. An Exactive™ mass spectrometer equipped with heated electrospray ionization (H-ESI) source was used (Thermo Fisher Scientific, Bremen, Germany). The system was equipped with a HTC PAL autosampler and a Surveyor MS Plus pump. A TSK Gel-Amide 80 column (2 × 250 mm, 5 μm) for analyte separation was purchased from Sigma Aldrich. Mobile phases were binary mixtures of acetonitrile (A) and 5 mM ammonium acetate (pH 5) in HPLC-grade water (B). […] The flow rate was set at 150 μL min^− 1 and the injection volume was 5 μL. […] Full scan acquisition over a mass range of 80–800 Da was performed at 70,000 full width at half maximum (FWHM) and spray voltage at 3.00 kV, capillary voltage at 30 V, skimmer voltage at 28 V and tube lens voltage at 130 V were used. A sheath gas flow rate of 45 arbitrary units (au), an auxiliary gas flow rate of 10 au and a capillary temperature at 300 °C were selected.
Here, pharmaceutical residue quantification in exposed G. pulex was performed by a 3-point matrix-matched calibration curve. […] The algal amino acid mixture-^13C,^15N (see Table 1) was used as internal standard (IS) for extraction and analytical control. L-ornithine hydrochloride, inosine, thymidine, taurine, 1.7-dimethylxanthine and (−)-riboflavin were quantified using either ^13C,^15N-proline or ^13C,^15N-tyrosine as the internal standard. The remaining 15 compounds were quantified using external calibration and the target compound itself was used as external standard. […] The method detection limit (MDL) was calculated following the same procedure, using spiked lyophilised G. pulex samples at a concentration of 1 μg g^− 1. Intra-assay variation was assessed using five consecutive injections of 5 ng μL^− 1 standard solution, and inter-assay variation was determined by measuring the same standard solution on four different days. […] Recovery studies were performed in triplicate, using lyophilised G. pulex samples spiked at 1 μg g^− 1 with the metabolites mixture and the algal amino acid mixture-^13C, ^15N.

Oc1cc(Cl)ccc1Oc1ccc(Cl)cc1Cl [Triclosan]
(-)-Riboflavin concentration in G. pulex (2h, C1= 0.1 mg/L): 2.6 ± 0.7 µg/g
ADP concentration in G. pulex (2h, C1= 0.1 mg/L): 28.6 ± 2 µg/g
Cytidine concentration in G. pulex (2h, C1= 0.1 mg/L): 34 ± 22 µg/g
Hypoxanthine concentration in G. pulex (2h, C1= 0.1 mg/L): 123 ± 4 µg/g
Inosine concentration in G. pulex (2h, C1= 0.1 mg/L): 14808 ± 1341 µg/g
L-2-amino-n-butyric concentration in G. pulex (2h, C1= 0.1 mg/L): 15.1 ± 3 µg/g
L-(-)-Proline concentration in G. pulex (2h, C1= 0.1 mg/L): 499 ± 11 µg/g
L-Alanine concentration in G. pulex (2h, C1= 0.1 mg/L): 999 ± 2 µg/g
L-Citrulline concentration in G. pulex (2h, C1= 0.1 mg/L): 9.7 ± 0.4 µg/g
L-Isoleucine concentration in G. pulex (2h, C1= 0.1 mg/L): 2067 ± 110 µg/g
L-Leucine concentration in G. pulex (2h, C1= 0.1 mg/L): 443 ± 1 µg/g
L-Methionine concentration in G. pulex (2h, C1= 0.1 mg/L): 5.4 ± 0.6 µg/g
L-Phenylalanine concentration in G. pulex (2h, C1= 0.1 mg/L): 340 ± 28 µg/g
L-Serine concentration in G. pulex (2h, C1= 0.1 mg/L): 158 ± 7 µg/g
L-Threonine concentration in G. pulex (2h, C1= 0.1 mg/L): 740 ± 6 µg/g
L-Tryptophan concentration in G. pulex (2h, C1= 0.1 mg/L): 74 ± 20 µg/g
L-Tyrosine concentration in G. pulex (2h, C1= 0.1 mg/L): 247 ± 8 µg/g
L-Valine concentration in G. pulex (2h, C1= 0.1 mg/L): 500 ± 1 µg/g
L-aspartic acid concentration in G. pulex (2h, C1= 0.1 mg/L): 62.6 ± 3 µg/g
NADH concentration in G. pulex (2h, C1= 0.1 mg/L): 7.11 ± 0.1 µg/g
Taurine concentration in G. pulex (2h, C1= 0.1 mg/L): 7300 ± 168 µg/g
Thymidine concentration in G. pulex (2h, C1= 0.1 mg/L): 2918 ± 603 µg/g
Trehalose concentration in G. pulex (2h, C1= 0.1 mg/L): 197 ± 1 µg/g
Uridine concentration in G. pulex (2h, C1= 0.1 mg/L): 699 ± 21 µg/g
(-)-Riboflavin concentration in G. pulex (2h, C2= 0.3 mg/L): 2.4 ± 0.5 µg/g
ADP concentration in G. pulex (2h, C2= 0.3 mg/L): 30.5 ± 0.2 µg/g
Cytidine concentration in G. pulex (2h, C2= 0.3 mg/L): 15 ± 6 µg/g
Hypoxanthine concentration in G. pulex (2h, C2= 0.3 mg/L): 74 ± 22 µg/g
Inosine concentration in G. pulex (2h, C2= 0.3 mg/L): 20640 ± 179 µg/g
L-2-amino-n-butyric concentration in G. pulex (2h, C2= 0.3 mg/L): 17.0 ± 2 µg/g
L-(-)-Proline concentration in G. pulex (2h, C2= 0.3 mg/L): 313 ± 1 µg/g
L-Alanine concentration in G. pulex (2h, C2= 0.3 mg/L): 827 ± 10 µg/g
L-Citrulline concentration in G. pulex (2h, C2= 0.3 mg/L): 14.6 ± 0.4 µg/g
L-Isoleucine concentration in G. pulex (2h, C2= 0.3 mg/L): 1140 ± 38 µg/g
L-Leucine concentration in G. pulex (2h, C2= 0.3 mg/L): 361 ± 17 µg/g
L-Methionine concentration in G. pulex (2h, C2= 0.3 mg/L): 3.8 ± 0.6 µg/g
L-Phenylalanine concentration in G. pulex (2h, C2= 0.3 mg/L): 200 ± 15 µg/g
L-Serine concentration in G. pulex (2h, C2= 0.3 mg/L): 158 ± 7 µg/g
L-Threonine concentration in G. pulex (2h, C2= 0.3 mg/L): 530 ± 7 µg/g
L-Tryptophan concentration in G. pulex (2h, C2= 0.3 mg/L): 142 ± 7 µg/g
L-Tyrosine concentration in G. pulex (2h, C2= 0.3 mg/L): 216 ± 5 µg/g
L-Valine concentration in G. pulex (2h, C2= 0.3 mg/L): 268 ± 1 µg/g
L-aspartic acid concentration in G. pulex (2h, C2= 0.3 mg/L): 60.5 ± 3 µg/g
NADH concentration in G. pulex (2h, C2= 0.3 mg/L): 9.3 ± 0.2 µg/g
Taurine concentration in G. pulex (2h, C2= 0.3 mg/L): 7645 ± 212 µg/g
Thymidine concentration in G. pulex (2h, C2= 0.3 mg/L): 639 ± 140 µg/g
Trehalose concentration in G. pulex (2h, C2= 0.3 mg/L): 272 ± 10 µg/g
Uridine concentration in G. pulex (2h, C2= 0.3 mg/L): 506 ± 66 µg/g
(-)-Riboflavin concentration in G. pulex (6h, C1= 0.1 mg/L): 3.4 ± 3 µg/g
ADP concentration in G. pulex (6h, C1= 0.1 mg/L): 18.6 ± 3 µg/g
Cytidine concentration in G. pulex (6h, C1= 0.1 mg/L): 66 ± 21 µg/g
Hypoxanthine concentration in G. pulex (6h, C1= 0.1 mg/L): 154 ± 27 µg/g
Inosine concentration in G. pulex (6h, C1= 0.1 mg/L): 18116 ± 26 µg/g
L-2-amino-n-butyric concentration in G. pulex (6h, C1= 0.1 mg/L): 21.1 ± 4 µg/g
L-(-)-Proline concentration in G. pulex (6h, C1= 0.1 mg/L): 462 ± 5 µg/g
L-Alanine concentration in G. pulex (6h, C1= 0.1 mg/L): 1119 ± 48 µg/g
L-Citrulline concentration in G. pulex (6h, C1= 0.1 mg/L): 9.0 ± 0.9 µg/g
L-Isoleucine concentration in G. pulex (6h, C1= 0.1 mg/L): 2685 ± 88 µg/g
L-Leucine concentration in G. pulex (6h, C1= 0.1 mg/L): 459 ± 4 µg/g
L-Methionine concentration in G. pulex (6h, C1= 0.1 mg/L): 5.0 ± 0.5 µg/g
L-Phenylalanine concentration in G. pulex (6h, C1= 0.1 mg/L): 417 ± 5 µg/g
L-Serine concentration in G. pulex (6h, C1= 0.1 mg/L): 179 ± 13 µg/g
L-Threonine concentration in G. pulex (6h, C1= 0.1 mg/L): 787 ± 22 µg/g
L-Tryptophan concentration in G. pulex (6h, C1= 0.1 mg/L): 97 ± 16 µg/g
L-Tyrosine concentration in G. pulex (6h, C1= 0.1 mg/L): 301 ± 1 µg/g
L-Valine concentration in G. pulex (6h, C1= 0.1 mg/L): 601 ± 9 µg/g
L-aspartic acid concentration in G. pulex (6h, C1= 0.1 mg/L): 43.2 ± 2 µg/g
NADH concentration in G. pulex (6h, C1= 0.1 mg/L): 7.7 ± 1 µg/g
Taurine concentration in G. pulex (6h, C1= 0.1 mg/L): 10516 ± 434 µg/g
Thymidine concentration in G. pulex (6h, C1= 0.1 mg/L): 3697 ± 180 µg/g
Trehalose concentration in G. pulex (6h, C1= 0.1 mg/L): 259 ± 8 µg/g
Uridine concentration in G. pulex (6h, C1= 0.1 mg/L): 723 ± 21 µg/g
